Reference: PMC10272112 (Nature Communications, 2023)
Values joined by “and” are separate entries in the source; they are usually repeats but may differ in a detail not shown here. Identical values can stand only once.

What was measured:
[1] = target: HDAC1 (Homo sapiens, UniProt Q13547); assay: HDAC-Glo assay; format: biochemical; parameters: purchased BPS Bioscience 50051; conditions: sheet S2d
Method: (§1) To validate the inhibition of HDACs by LA and LM and elaborate on the structure-activity relationship (SAR) of enantiomers as well as oxidized versus reduced forms of the molecules, we performed enzyme activity assays for recombinant HDAC1,2,3,6,8 as well as FRET-based binding assay for recombinant HDAC10.
(§2) The experiments were performed according to ref. [48]. […] Drug dosing was performed with a D300e Digital Dispenser (Tecan). HDACs (7 ng/mL for HDAC1, 25 ng/mL for HDAC2, 200 ng/mL for HDAC3/Ncor2 complex, 100 ng/mL for HDAC6, 200 ng/mL for HDAC8) and inhibitors were incubated together at room temperature (RT) for 30 min. After the addition of the HDAC-Glo™ I/II reagent, plates were shaken (800 rpm orbital shaker, 30 s), centrifuged (300 g, 1 min), and incubated at RT for 30 min. Luminescence was detected with a CLARIOstar (BMG Labtech) plate reader.

[2] = target: T1, HDAC8 (Homo sapiens, UniProt Q9BY41); assay: HDAC-Glo assay; format: biochemical; parameters: purchased BPS Bioscience 50008; conditions: sheet S2d
T1 sequence (Q9BY41 1-377): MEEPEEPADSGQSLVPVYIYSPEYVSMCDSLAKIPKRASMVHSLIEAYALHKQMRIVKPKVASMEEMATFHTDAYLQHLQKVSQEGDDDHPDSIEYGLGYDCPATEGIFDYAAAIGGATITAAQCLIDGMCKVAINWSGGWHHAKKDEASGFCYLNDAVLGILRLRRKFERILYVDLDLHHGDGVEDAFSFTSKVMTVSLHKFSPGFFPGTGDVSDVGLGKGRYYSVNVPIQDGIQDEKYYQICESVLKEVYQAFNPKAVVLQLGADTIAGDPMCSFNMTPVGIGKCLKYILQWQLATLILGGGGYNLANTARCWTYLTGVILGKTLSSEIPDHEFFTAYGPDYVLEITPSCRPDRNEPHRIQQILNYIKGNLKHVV
Method: as §1, §2

[3] = target: T2, HDAC6 (Homo sapiens, UniProt Q9UBN7); assay: HDAC-Glo assay; format: biochemical; parameters: purchased BPS Bioscience 50006; conditions: sheet S2d
T2 sequence (Q9UBN7 1-1215): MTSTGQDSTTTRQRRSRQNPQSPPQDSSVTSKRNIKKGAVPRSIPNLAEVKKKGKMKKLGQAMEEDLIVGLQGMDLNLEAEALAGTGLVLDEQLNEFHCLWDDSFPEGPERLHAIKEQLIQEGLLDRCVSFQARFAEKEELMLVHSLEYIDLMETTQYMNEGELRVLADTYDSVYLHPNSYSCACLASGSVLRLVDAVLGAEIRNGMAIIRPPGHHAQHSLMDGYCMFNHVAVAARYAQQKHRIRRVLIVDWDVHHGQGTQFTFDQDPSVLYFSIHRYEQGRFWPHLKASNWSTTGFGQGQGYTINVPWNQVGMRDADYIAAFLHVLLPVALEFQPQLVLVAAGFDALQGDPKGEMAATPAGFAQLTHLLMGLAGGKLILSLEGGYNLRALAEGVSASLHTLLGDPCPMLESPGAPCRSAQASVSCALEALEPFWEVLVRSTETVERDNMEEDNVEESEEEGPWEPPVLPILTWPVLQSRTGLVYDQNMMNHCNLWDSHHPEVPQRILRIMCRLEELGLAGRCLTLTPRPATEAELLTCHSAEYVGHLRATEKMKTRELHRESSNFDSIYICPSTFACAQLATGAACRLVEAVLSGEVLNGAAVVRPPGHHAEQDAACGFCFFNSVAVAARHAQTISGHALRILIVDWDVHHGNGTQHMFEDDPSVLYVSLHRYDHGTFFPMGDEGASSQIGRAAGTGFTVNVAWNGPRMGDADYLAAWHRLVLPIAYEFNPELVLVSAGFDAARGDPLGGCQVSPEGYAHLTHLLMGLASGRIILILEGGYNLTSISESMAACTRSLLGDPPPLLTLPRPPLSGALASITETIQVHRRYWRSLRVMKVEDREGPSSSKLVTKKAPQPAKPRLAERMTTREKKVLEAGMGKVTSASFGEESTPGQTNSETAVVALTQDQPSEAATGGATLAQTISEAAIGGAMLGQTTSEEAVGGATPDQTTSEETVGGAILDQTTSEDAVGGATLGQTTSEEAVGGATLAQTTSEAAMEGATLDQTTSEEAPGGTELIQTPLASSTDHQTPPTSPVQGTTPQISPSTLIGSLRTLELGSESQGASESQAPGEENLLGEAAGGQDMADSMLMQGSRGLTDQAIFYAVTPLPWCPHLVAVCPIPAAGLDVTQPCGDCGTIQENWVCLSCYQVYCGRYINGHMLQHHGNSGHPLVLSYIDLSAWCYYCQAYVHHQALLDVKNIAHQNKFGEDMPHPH
Method: as §1, §2

[4] = target: T3, TwinStrep-GST-HDAC10 (Homo sapiens, UniProt Q969S8); assay: HDAC10 TR-FRET assay; format: binding; conditions: sheet S2e
T3 sequence (Q969S8 1-669): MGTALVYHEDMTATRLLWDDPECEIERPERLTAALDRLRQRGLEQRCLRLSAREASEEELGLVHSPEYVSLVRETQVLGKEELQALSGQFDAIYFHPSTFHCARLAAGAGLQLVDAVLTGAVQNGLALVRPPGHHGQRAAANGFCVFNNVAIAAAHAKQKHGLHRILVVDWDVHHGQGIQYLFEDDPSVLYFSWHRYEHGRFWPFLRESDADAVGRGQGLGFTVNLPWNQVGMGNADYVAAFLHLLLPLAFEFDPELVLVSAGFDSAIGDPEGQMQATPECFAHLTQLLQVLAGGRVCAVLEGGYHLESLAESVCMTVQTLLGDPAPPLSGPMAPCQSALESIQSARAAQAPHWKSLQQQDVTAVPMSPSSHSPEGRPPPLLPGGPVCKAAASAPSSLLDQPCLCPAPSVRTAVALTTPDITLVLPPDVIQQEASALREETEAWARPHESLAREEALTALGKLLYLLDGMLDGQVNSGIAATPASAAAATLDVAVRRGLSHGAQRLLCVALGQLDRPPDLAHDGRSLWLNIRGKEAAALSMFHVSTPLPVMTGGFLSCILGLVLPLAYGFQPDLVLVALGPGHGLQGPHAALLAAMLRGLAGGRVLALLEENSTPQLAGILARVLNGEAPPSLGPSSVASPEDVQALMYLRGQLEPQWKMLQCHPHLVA
Method: as §1
Inhibitors with a D300e Digital Dispenser (Tecan). After drug dosing to the premixed assay reagents in buffer, plates were shaken (800 rpm orbital shaker, 30 s), centrifuged (300g, 1 min), and incubated at RT in the dark for 90 min. TR-FRET was measured with a CLARIOstar (BMG Labtech) plate reader, equipped with TR-FRET filters.

Chain of HDAC1 (Q13547 whole entry): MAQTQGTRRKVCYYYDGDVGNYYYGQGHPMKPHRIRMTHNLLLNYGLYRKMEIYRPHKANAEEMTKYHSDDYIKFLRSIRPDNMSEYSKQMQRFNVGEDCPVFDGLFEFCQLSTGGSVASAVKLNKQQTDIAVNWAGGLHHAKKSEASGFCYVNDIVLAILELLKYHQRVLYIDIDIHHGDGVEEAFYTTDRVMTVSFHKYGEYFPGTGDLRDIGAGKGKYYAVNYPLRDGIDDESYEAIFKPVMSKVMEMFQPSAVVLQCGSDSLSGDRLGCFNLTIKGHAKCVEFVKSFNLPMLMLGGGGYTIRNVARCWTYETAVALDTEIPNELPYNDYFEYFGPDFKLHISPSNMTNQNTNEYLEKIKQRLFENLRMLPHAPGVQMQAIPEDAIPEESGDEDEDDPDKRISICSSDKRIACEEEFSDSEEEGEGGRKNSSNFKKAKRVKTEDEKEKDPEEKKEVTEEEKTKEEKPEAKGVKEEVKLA

SMILES: O=C(O)CCCCC(S)CCS (centres unmarked) [LAred]
- HDAC1 relative activity ([1]; log conc -3.30103): 2.768 and 2.872 and 2.683
- HDAC1 relative activity ([1]; log conc -3.82945): 9.265 and 8.951 and 9.199
- HDAC1 relative activity ([1]; log conc -4.35788): 26.7114 and 25.7521 and 27.3764
- HDAC1 relative activity ([1]; log conc -4.88629): 53.7175 and 53.6506 and 52.4863
- HDAC1 relative activity ([1]; log conc -5.41477): 84.4773 and 84.2156 and 82.4618
- HDAC1 relative activity ([1]; log conc -5.94309): 94.7528 and 92.6024 and 91.8471
- HDAC1 relative activity ([1]; log conc -6.47756): 99.9185 and 101.441 and 101.474
- HDAC1 relative activity ([1]; log conc -6.87615): 103.379 and 101.234 and 95.7354
- HDAC8 relative activity ([2]; log conc -3.30103): 5.5387 and 6.443 and 4.956
- HDAC8 relative activity ([2]; log conc -3.82945): 15.2478 and 14.986 and 14.6707
- HDAC8 relative activity ([2]; log conc -4.35788): 32.9883 and 33.8093 and 29.5437
- HDAC8 relative activity ([2]; log conc -4.88629): 65.7743 and 68.9393 and 55.1609
- HDAC8 relative activity ([2]; log conc -5.41477): 94.4673 and 96.4781 and 81.2779
- HDAC8 relative activity ([2]; log conc -5.94309): 99.9702 and 99.768 and 95.3061
- HDAC8 relative activity ([2]; log conc -6.47756): 102.1 and 101.594 and 89.0594
- HDAC8 relative activity ([2]; log conc -6.87615): 104.349 and 101.731 and 91.7247
- HDAC6 relative activity ([3]; log conc -3.30103): 1.901 and 1.871 and 1.9083
- HDAC6 relative activity ([3]; log conc -3.82945): 3.442 and 3.206 and 3.406
- HDAC6 relative activity ([3]; log conc -4.35788): 6.925 and 6.75 and 6.858
- HDAC6 relative activity ([3]; log conc -4.88629): 16.7633 and 15.9117 and 16.5726
- HDAC6 relative activity ([3]; log conc -5.41477): 38.1371 and 36.4753 and 35.86
- HDAC6 relative activity ([3]; log conc -5.94309): 60.9287 and 58.1296 and 64.9441
- HDAC6 relative activity ([3]; log conc -6.47756): 84.471 and 78.2193 and 82.7984
- HDAC6 relative activity ([3]; log conc -6.87615): 87.6459 and 83.3784 and 85.1621

SMILES: O=C(O)CCCCC(S)CCS (centres unmarked) [R/S Lipoic Acid Reduced]
- HDAC10 TR-FRET relative signal ([4]; log conc -5.74088): 12.9805 and 13.6219 and 13.4323
- HDAC10 TR-FRET relative signal ([4]; log conc -6.32148): 35.3961 and 30.9531 and 27.2587
- HDAC10 TR-FRET relative signal ([4]; log conc -6.92082): 58.0202 and 63.7897 and 66.3493
- HDAC10 TR-FRET relative signal ([4]; log conc -7.57349): 84.4678 and 78.5713 and 85.276
- HDAC10 TR-FRET relative signal ([4]; log conc -8.06198): 102.777 and 109.857 and 101.86
